Measurements from article PMC8881512 (Nature Communications, 2022).
“And” between values parts separate entries of the source, which are not always exact repeats. Equal values may be shown once.

What was measured:
MCF-7 cells = test: Cell proliferation by cell counting, MCF-7; assay type: cell-based, human; settings: for Cell proliferation normalised to DMSO treated WT cells: 4 days, Fig.6c
Description: (§1) Cell proliferation rates were determined by automated cell counter. In brief, cells were plated at density of 0.1 million cells per well in six-well plate. Cell numbers were counted by the indicated time point as stated in the figure legends.

MDA-MB-231 cells = test: Cell proliferation, MDA-MB-231; assay type: cell-based; settings: 0.5 µM or 2 µM VT02956 for 4 days; Supplementary Fig. 8e
Description: as §1

PRKX = biological target: T1, PRKX (Homo sapiens, UniProt P51817); test: Kinome profiling; assay type: biochemical; settings: VT02956 (5 nM), read-out: % enzymatic activity relative to DMSO controls
T1 construct: LATS1/LATS2 enzymes from Signalchem

LATS2 = biological target: T2, LATS2 (Homo sapiens, UniProt Q9NRM7); test: Kinome profiling; assay type: biochemical; settings: VT02956 (5 nM)
T2 construct: purchased Signalchem
T2 sequence (Q9NRM7 1-1088): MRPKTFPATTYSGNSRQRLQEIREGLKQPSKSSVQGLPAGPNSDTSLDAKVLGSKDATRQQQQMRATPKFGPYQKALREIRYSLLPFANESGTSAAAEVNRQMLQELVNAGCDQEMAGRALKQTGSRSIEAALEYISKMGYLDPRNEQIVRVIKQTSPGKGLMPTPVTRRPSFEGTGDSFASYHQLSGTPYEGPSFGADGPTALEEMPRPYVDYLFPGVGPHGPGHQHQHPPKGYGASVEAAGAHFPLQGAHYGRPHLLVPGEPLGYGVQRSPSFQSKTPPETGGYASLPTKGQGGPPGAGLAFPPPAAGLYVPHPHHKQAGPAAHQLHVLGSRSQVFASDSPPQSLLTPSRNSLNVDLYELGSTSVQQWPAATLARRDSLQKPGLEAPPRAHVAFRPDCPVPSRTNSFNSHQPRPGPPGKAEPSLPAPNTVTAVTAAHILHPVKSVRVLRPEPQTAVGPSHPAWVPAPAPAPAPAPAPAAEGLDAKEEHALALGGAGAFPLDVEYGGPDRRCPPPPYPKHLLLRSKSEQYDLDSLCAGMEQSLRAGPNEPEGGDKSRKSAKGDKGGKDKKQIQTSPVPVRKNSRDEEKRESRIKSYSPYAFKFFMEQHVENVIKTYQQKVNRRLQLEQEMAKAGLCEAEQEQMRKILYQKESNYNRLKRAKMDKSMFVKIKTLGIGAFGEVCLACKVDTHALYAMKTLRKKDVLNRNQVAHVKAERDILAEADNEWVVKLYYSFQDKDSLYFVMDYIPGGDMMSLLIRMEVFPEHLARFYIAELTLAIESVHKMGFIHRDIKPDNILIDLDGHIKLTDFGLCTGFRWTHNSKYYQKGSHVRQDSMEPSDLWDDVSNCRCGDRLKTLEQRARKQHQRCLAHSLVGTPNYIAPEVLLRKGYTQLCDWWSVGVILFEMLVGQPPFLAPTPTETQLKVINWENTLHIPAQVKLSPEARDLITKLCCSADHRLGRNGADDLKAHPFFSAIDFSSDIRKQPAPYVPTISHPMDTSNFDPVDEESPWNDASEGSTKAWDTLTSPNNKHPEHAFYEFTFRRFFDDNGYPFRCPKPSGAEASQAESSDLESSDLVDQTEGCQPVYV

p70S6K/RPS6KB1 = biological target: T3, p70S6K/RPS6KB1 (Homo sapiens, UniProt P23443); test: Kinome profiling; assay type: biochemical; settings: VT02956 (5 nM), read-out: % enzymatic activity relative to DMSO controls
T3 construct: LATS1/LATS2 enzymes from Signalchem

MSK1/RPS6KA5 = biological target: T4, MSK1/RPS6KA5 (Homo sapiens, UniProt O75582); test: Kinome profiling; assay type: biochemical; settings: VT02956 (5 nM), read-out: % enzymatic activity relative to DMSO controls
T4 construct: LATS1/LATS2 enzymes from Signalchem

PKN3/PRK3 = biological target: T5, PKN3/PRK3 (Homo sapiens, UniProt Q6P5Z2); test: Kinome profiling; assay type: biochemical; settings: VT02956 (5 nM)
T5 construct: LATS1/LATS2 enzymes from Signalchem

RIPK2 = biological target: T6, RIPK2 (Homo sapiens, UniProt O43353); test: Kinome profiling; assay type: biochemical; settings: VT02956 (5 nM), read-out: % enzymatic activity relative to DMSO controls
T6 construct: LATS1/LATS2 enzymes from Signalchem

AKT1 = biological target: T7, AKT1 (Homo sapiens, UniProt P31749); test: Kinome profiling; assay type: biochemical; settings: VT02956 (5 nM)
T7 construct: LATS1/LATS2 enzymes from Signalchem

BLK = biological target: T8, BLK (Homo sapiens, UniProt P51451); test: Kinome profiling; assay type: biochemical; settings: VT02956 (5 nM), read-out: % enzymatic activity relative to DMSO controls
T8 construct: LATS1/LATS2 enzymes from Signalchem

CDK9/cyclin T1 = biological target: T9, CDK9/cyclin T1 (Homo sapiens, UniProt P50750); test: Kinome profiling; assay type: biochemical; settings: VT02956 (5 nM), read-out: % enzymatic activity relative to DMSO controls
T9 construct: LATS1/LATS2 enzymes from Signalchem

WNK3 = biological target: T10, WNK3 (Homo sapiens, UniProt Q9BYP7); test: Kinome profiling; assay type: biochemical; settings: VT02956 (5 nM), read-out: % enzymatic activity relative to DMSO controls
T10 construct: LATS1/LATS2 enzymes from Signalchem

JAK1 = biological target: T11, JAK1 (Homo sapiens, UniProt P23458); test: Kinome profiling; assay type: biochemical; settings: VT02956 (5 nM)
T11 construct: LATS1/LATS2 enzymes from Signalchem

CHK1 = biological target: T12, CHK1 (Homo sapiens, UniProt O14757); test: Kinome profiling; assay type: biochemical; settings: VT02956 (5 nM)
T12 construct: LATS1/LATS2 enzymes from Signalchem

EPHA3 = biological target: T13, EPHA3 (Homo sapiens, UniProt P29320); test: Kinome profiling; assay type: biochemical; settings: VT02956 (5 nM), read-out: % enzymatic activity relative to DMSO controls
T13 construct: LATS1/LATS2 enzymes from Signalchem

KSR2 = biological target: T14, KSR2 (Homo sapiens, UniProt Q6VAB6); test: Kinome profiling; assay type: biochemical; settings: VT02956 (5 nM), read-out: % enzymatic activity relative to DMSO controls
T14 construct: LATS1/LATS2 enzymes from Signalchem

CAMKK1 = biological target: T15, CAMKK1 (Homo sapiens, UniProt Q8N5S9); test: Kinome profiling; assay type: biochemical; settings: VT02956 (5 nM), read-out: % enzymatic activity relative to DMSO controls
T15 construct: LATS1/LATS2 enzymes from Signalchem

TXK = biological target: T16, TXK (Homo sapiens, UniProt P42681); test: Kinome profiling; assay type: biochemical; settings: VT02956 (5 nM), read-out: % enzymatic activity relative to DMSO controls
T16 construct: LATS1/LATS2 enzymes from Signalchem

COT1/MAP3K8 = biological target: T17, COT1/MAP3K8 (Homo sapiens, UniProt P41279); test: Kinome profiling; assay type: biochemical; settings: VT02956 (5 nM), read-out: % enzymatic activity relative to DMSO controls
T17 construct: LATS1/LATS2 enzymes from Signalchem
T17 sequence (P41279 whole entry): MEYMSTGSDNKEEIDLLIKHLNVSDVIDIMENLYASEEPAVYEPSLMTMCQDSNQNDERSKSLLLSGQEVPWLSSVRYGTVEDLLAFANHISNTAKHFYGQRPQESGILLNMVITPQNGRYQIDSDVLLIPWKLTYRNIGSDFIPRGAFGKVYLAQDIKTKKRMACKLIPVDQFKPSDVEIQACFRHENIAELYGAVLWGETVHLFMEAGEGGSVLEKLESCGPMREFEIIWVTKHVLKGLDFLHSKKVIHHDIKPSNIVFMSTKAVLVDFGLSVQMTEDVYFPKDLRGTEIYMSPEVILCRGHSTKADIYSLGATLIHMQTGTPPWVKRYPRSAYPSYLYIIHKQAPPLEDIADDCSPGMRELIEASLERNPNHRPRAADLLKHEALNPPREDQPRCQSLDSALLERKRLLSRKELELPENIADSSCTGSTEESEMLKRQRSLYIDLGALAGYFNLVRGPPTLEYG

T13 sequence (P29320 21-983): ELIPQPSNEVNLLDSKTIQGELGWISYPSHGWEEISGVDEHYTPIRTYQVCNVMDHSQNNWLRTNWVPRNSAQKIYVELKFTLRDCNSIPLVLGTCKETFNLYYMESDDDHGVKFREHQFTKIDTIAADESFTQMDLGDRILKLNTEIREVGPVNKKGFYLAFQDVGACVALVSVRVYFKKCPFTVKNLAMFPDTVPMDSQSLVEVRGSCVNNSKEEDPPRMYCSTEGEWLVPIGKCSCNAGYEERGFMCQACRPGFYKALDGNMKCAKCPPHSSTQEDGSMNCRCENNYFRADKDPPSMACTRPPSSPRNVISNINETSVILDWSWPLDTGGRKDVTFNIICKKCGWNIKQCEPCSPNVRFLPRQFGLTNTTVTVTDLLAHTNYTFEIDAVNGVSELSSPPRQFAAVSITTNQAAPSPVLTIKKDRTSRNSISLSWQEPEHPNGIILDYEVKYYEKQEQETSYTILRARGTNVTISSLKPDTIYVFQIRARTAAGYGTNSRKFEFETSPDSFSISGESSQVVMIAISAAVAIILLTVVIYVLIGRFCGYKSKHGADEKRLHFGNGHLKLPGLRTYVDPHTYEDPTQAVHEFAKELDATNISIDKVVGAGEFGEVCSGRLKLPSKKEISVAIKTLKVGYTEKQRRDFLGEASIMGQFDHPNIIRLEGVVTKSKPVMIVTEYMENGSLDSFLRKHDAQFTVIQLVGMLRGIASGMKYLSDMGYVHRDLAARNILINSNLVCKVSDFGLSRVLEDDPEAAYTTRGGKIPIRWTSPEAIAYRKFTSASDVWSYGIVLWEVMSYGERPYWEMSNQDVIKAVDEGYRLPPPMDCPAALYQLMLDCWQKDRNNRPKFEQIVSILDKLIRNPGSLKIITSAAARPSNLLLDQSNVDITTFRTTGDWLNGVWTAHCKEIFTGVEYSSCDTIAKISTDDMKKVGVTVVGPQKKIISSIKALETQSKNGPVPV
T11 sequence (P23458 whole entry): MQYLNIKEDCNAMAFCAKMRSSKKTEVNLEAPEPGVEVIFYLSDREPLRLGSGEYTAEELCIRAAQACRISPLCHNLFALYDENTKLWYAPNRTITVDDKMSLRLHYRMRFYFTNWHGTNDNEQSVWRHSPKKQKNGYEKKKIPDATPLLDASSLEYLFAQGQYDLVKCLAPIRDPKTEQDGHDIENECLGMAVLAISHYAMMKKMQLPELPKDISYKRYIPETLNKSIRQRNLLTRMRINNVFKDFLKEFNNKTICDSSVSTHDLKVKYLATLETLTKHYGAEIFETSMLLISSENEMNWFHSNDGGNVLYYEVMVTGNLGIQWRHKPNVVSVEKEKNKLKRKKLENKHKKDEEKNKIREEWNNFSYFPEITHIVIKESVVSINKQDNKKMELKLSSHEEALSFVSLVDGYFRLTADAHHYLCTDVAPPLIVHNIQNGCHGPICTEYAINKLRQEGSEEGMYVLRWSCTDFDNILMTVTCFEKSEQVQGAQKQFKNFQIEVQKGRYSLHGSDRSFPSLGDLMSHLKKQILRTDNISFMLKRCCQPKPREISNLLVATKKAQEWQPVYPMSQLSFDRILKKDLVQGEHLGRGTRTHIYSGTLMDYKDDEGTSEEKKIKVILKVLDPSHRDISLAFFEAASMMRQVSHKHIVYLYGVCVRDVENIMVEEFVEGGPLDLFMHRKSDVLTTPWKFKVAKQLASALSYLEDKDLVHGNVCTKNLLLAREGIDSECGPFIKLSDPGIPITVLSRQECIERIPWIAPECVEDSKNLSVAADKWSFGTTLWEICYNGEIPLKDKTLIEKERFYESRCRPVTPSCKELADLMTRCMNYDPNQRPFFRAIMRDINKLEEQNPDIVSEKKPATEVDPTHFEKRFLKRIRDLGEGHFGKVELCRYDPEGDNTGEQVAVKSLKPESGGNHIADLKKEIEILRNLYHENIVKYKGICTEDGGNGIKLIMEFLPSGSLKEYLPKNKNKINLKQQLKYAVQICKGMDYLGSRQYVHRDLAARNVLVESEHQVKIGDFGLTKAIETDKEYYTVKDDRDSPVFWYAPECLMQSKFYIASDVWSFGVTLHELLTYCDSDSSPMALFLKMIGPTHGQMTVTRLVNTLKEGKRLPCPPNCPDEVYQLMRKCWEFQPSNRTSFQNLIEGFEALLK
T1 sequence (P51817 whole entry): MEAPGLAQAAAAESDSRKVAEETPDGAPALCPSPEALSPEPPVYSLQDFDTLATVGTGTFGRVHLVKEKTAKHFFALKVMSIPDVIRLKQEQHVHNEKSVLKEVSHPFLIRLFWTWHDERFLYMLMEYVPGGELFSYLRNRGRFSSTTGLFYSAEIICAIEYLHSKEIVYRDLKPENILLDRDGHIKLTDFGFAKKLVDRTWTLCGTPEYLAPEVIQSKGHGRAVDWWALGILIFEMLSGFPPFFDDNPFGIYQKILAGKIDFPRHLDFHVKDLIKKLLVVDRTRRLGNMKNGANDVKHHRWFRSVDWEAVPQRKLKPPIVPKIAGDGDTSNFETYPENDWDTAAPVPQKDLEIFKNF
T7 sequence (P31749 whole entry): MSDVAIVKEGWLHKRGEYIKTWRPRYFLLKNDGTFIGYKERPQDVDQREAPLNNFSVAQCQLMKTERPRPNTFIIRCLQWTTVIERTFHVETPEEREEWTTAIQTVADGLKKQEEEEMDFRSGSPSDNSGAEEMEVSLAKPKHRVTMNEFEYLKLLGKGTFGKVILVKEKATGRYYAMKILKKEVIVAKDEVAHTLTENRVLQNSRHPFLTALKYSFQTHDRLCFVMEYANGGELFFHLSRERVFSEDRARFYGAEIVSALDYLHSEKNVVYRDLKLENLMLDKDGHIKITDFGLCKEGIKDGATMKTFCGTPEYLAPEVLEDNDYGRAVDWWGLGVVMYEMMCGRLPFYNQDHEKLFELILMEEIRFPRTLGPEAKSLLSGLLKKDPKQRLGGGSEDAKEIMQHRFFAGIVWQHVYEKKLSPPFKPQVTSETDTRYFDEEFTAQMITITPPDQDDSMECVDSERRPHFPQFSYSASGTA
T6 sequence (O43353 whole entry): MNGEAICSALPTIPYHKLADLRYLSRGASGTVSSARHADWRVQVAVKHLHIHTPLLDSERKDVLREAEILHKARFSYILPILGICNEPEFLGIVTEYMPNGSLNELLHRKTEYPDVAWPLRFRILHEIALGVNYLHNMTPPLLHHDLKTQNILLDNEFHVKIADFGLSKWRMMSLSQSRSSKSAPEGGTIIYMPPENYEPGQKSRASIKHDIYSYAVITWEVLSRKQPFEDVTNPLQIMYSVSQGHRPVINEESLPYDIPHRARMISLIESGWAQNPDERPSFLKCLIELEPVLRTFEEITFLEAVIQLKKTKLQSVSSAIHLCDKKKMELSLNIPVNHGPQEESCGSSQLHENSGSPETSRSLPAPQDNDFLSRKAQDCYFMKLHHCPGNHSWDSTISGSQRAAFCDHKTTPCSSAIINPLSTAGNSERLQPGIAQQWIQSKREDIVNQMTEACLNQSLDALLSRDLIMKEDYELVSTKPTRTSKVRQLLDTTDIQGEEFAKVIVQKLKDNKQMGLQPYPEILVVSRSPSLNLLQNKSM
T14 sequence (Q6VAB6 whole entry): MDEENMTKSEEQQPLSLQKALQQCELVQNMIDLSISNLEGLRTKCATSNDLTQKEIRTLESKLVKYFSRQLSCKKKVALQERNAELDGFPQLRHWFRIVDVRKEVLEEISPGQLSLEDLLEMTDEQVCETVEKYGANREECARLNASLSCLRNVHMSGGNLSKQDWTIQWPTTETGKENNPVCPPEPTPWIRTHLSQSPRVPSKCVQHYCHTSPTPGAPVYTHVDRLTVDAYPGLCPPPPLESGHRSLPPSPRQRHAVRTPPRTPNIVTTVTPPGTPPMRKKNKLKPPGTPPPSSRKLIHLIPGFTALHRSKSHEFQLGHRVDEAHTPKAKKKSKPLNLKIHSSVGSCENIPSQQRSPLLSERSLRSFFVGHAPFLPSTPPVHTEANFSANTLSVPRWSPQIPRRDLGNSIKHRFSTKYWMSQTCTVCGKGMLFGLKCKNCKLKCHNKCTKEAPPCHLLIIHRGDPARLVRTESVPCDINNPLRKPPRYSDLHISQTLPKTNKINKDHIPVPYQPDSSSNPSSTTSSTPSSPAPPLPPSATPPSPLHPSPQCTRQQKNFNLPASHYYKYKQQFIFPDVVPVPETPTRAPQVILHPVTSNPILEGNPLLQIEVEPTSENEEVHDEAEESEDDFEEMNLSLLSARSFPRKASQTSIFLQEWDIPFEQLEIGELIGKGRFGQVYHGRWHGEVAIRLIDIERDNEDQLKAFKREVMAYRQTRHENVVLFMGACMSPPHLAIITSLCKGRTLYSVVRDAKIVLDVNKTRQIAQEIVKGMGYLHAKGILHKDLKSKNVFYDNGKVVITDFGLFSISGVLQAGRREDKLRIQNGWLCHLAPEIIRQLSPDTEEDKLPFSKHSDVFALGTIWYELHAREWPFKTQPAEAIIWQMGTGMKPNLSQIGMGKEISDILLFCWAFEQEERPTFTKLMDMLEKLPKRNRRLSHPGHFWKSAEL

For `NCC1CCN(c2nc(-c3ccncc3)nc3c(C#CCO)cccc23)CC1` [VT02956], the MCF-7 proliferation (MCF-7 cells; 0.5 µM or 2 µM, 4-day time course, Supplementary Fig. 8a, b) was “inhibited the proliferation of MCF-7 and T47D cells”, the “Cell proliferation normalised to DMSO treated WT cells” value (“Cell proliferation normalised” for short) (MCF-7 cells; MCF-7 LATS1/2 dKO, VT02956 0.5 uM) was 31.2704 and 24.43 and 25.4072 and the “Cell proliferation normalised” value (MCF-7 cells; MCF-7 LATS1/2 dKO, VT02956 2 uM) was 23.4528 and 26.3844 and 21.4984. The “Cell proliferation normalised” value (MCF-7 cells; MCF-7 WT, VT02956 0.5 uM) was 76.2215 and 83.0619 and 85.9935, the “Cell proliferation normalised” value (MCF-7 cells; MCF-7 WT, VT02956 2 uM) was 41.0423 and 42.0195 and the “Cell proliferation normalised” value (MCF-7 cells; MCF-7 YAP/TAZ dKO, VT02956 0.5 uM) was 94.7883 and 88.9251 and 92.8339. The “Cell proliferation normalised” value (MCF-7 cells; MCF-7 YAP/TAZ dKO, VT02956 2 uM) was 84.0391 and 80.1303 and 85.0163, the “growth of ER negative breast cancer MDA-MB-231 cells” value (MDA-MB-231 cells) was “had little effect” and the remaining activity at 0.005 µM (PRKX) was 3%. For the same compound, the “% enzymatic activity relative to DMSO controls” value (LATS2) was 34%, the remaining activity at 0.005 µM (p70S6K/RPS6KB1) was 38% and the remaining activity at 0.005 µM (MSK1/RPS6KA5) was 49%. For the same compound, the “% enzymatic activity relative to DMSO controls” value (PKN3/PRK3) was 64%, the remaining activity at 0.005 µM (RIPK2) was 75% and the “% enzymatic activity relative to DMSO controls” value (AKT1) was 78%. The remaining activity at 0.005 µM (BLK) was 78%, the remaining activity at 0.005 µM (CDK9/cyclin T1) was 80% and the remaining activity at 0.005 µM (WNK3) was 82%. For the same compound, the “% enzymatic activity relative to DMSO controls” value (JAK1) was 82%, the “% enzymatic activity relative to DMSO controls” value (CHK1) was 80% and the remaining activity at 0.005 µM (EPHA3) was 84%. For the same compound, the remaining activity at 0.005 µM (KSR2) was 83%, the remaining activity at 0.005 µM (CAMKK1) was 83% and the remaining activity at 0.005 µM (TXK) was 83%. The remaining activity at 0.005 µM (COT1/MAP3K8) was 86%.
